Assay results: article PMC11032326, “A practical synthesis of nitrone-derived C5a-functionalized isofagomines as protein stabilizers to treat Gaucher disease” (Communications Chemistry, 2024)

Key:
[1] = target: T1, rh-GCase (Homo sapiens, UniProt P04062); experiment: rh-GCase inhibition study (in-situ screening and IC50 of resynthesized compounds); assay type: biochemical; details: for IC50: resynthesized compounds, read-out: IC50 against rh-GCase
T1 sequence (P04062 40-536): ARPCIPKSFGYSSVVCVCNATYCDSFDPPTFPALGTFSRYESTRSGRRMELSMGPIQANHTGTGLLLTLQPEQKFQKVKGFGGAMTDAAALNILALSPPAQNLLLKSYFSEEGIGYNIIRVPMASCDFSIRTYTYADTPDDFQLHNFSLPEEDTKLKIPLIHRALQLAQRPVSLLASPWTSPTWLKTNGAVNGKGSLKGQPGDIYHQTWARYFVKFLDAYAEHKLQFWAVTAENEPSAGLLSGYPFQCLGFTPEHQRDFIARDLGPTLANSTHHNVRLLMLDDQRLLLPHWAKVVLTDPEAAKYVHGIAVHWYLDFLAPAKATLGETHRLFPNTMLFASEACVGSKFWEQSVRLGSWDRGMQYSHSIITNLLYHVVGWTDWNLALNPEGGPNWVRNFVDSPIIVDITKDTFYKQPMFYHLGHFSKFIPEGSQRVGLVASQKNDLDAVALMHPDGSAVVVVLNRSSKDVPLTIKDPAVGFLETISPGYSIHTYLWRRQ

[2] = tested on: β-glucosidase activity in p.Asn370Ser/p.Leu29Alafs*18 Gaucher fibroblasts (GM00372); experiment: Intact cell β-glucosidase activity study (chaperone activity) in Gaucher fibroblasts; assay type: cell-based, human; details: compared to untreated cells (=1)
Protocol: (§1) GM00372 cells were seeded into 96-well culture plates. […] The final concentration of DMSO was <0.5% which had no cytotoxicity or glucosidase inhibition. The cells were incubated for 5 days and the medium for DMSO-treated cells or compound-treated cells was renewed every 3 days. The enzyme activity assay was performed after removing the medium supplemented with compounds. Compounds were evaluated at all concentrations in triplicate. The monolayers were washed with Dulbecco’s PBS solution (Gibco pH 7.4). PBS (16 μL) and acetate buffer (0.2 M, 16 μL, pH 4.0) were added to each well. The reaction was started by the addition of 4-methylumbelliferyl β-D-glucoside (4 mM, 25 μL, Sigma) to each well, followed by incubation at 37 °C for 2 h. The reaction was stopped by lysing the cells with glycine buffer (0.2 M, 200 μL, pH 10.8). The fluorescence was also measured by the release of 4-methylumbelliferone with an excitation wavelength of 355 nm and an emission wavelength of 460 nm (SpectraMax M5, Molecular Devices). The fluorescence of untreated cells was compared with those treated with compounds. Among the resynthesized compounds, compound 16 was further subjected to the same experiments described above thoroughly at the concentration of 0–500 nM. Likewise, 4-methylumbelliferyl α-D-glucoside (4 mM, 25 μL, Sigma) was used to evaluate the cellular α-glucosidase activity in GM00372 cells treated with or without compound 16 (0–500 nM).

[3] = target: T1, rh-GCase; experiment: Thermal stability shift assay (fluorescence-based thermal denaturation); assay type: binding; details: compared to Tm of rh-GCase without small molecule; for ΔTm at 100 µM: pH 7, 100 µM, read-out: In-vitro rh-GCase stabilization ΔTm; for In-vitro rh-GCase stabilization ΔTm: 100 µM, pH 7.0
Protocol: The stability of rh-GCase was assessed using a modified fluorescence thermal stability assay on a Rotor-Gene system in a neutral pH buffer (phosphate buffer, pH 7.0). […] A thermal gradient was applied to the plate at a rate of 1 °C/minute, during which time the fluorescence of SYPRO Orange was continuously monitored. The fluorescence intensity at each temperature was normalized to the maximum fluorescence after complete thermal denaturation.

[4] = tested on: p.Leu444Pro Gaucher fibroblasts (GM00877); experiment: rh-GCase activity in Gaucher patient fibroblasts (co-administration), GM00877; assay type: cell-based, human; details: rh-GCase 0.17 μM, 16 at 1 μM, 24 h
Protocol: (§2) Gaucher patient fibroblasts (GM00372 and GM00877) (2 × 10^4 cells) were seeded in 48-well culture plates and incubated overnight. […] After 24 h, the medium was refreshed without rh-GCase and SMPSs, then the cells were incubated for another 24 h. Cells were harvested by trypsinization and the cell pellets were washed twice with PBS and lysed with lysis buffer containing 0.1% Triton X-100, 50 mM Tris-HCl, and 150 mM NaCl. GCase activity assay was performed by mixing lysate (10 μl) and substrate (90 μL of 4 mM 4-methylumbelliferyl β-D-glucopyranoside) in 0.1 M NaOAc and incubating at 37 °C for 1 h. Reactions were terminated by adding 0.2 N glycine-NaOH, pH 10.7. The fluorescence was detected at excitation/emission wavelengths 355/460 nm.

[5] = tested on: Gaucher p.Asn370Ser fibroblasts (GM00372); experiment: rh-GCase activity in Gaucher patient fibroblasts (co-administration), GM00372; assay type: cell-based, human; details: rh-GCase 0.17 μM, 16 at 1 μM, 24 h
Protocol: as §2

[6] = tested on: cellular α-glucosidase activity in GM00372 cells; experiment: Intact cell α-glucosidase activity study in Gaucher fibroblasts; assay type: cell-based, human; details: 0–500 nM
Protocol: as §1, with “Likewise, 4-methylumbelliferyl α-D-glucoside (4 mM, 25 μL, Sigma) was used to evaluate the cellular α-glucosidase activity in GM00372 cells treated with or without compound 16 (0–500 nM).” left out

[7] = Fluorescence-based thermal shift assay of pegylated rh-GCases; assay type: physicochemical; details: rh-GCase modified by MeO-PEG-NHS (Mw 5000 Da), molar ratio reagent to enzyme
From the text: Supplementary Figure 1. Characterization of rh-GCase modified by MeO-PEG-NHS (Mw 5000 Da) with different molar ratios of reagent to the enzyme. (A) SDS-PAGE analysis of the pegylated rh-GCases indicated the acceptable effectiveness of the modification reaction, but reacting rh-GCase with longer MeO-PEG-NHS reagents resulted the incomplete pegylation (data not shown). (B) The […]
(also on this page, place not known: rh -GCase MeO -PEG-NHS rh -GCase MeO -PEG-NHS 40 50 60 70 0 20 40 60 80 100 Mono-PEG5k (50 eq) Mono-PEG5k (100 eq) Temperature (oC) Unfolded protein (%)) […]

O=C(Cc1ccc(Br)cc1)NC[C@H]1NC[C@@H](O)[C@H](O)[C@H]1CO [Compound 22]
IC50 [1]: 250 ± 49 nM

COc1ccc(C(=O)NC[C@H]2NC[C@@H](O)[C@H](O)[C@H]2CO)c(OC)c1 [Compound 20]
IC50 [1]: 45.6 ± 13.7 nM

O=C(NC[C@@H]1NC[C@@H](O)[C@H](O)[C@H]1CO)c1cccc2c1C(=O)c1ccccc1-2 [Compound 27]
IC50 [1]: 68.3 ± 22 nM

O=C(NC[C@@H]1NC[C@@H](O)[C@H](O)[C@H]1CO)c1ccc2ccccc2c1 [Compound 23]
IC50 [1]: 63.6 ± 9.5 nM

C/C(=C\c1ccccc1)C(=O)NC[C@@H]1NC[C@@H](O)[C@H](O)[C@H]1CO [Compound 15]
β-glucosidase activity enhancement in p.Asn370Ser cells ([2]; 100 nM): 1.8 fold | IC50 [1]: 30 ± 7.8 nM | ΔTm at 100 µM [3]: 11.3 °C

O=C(Cc1ccc(Br)cc1)NC[C@@H]1NC[C@@H](O)[C@H](O)[C@H]1CO [Compound 17]
β-glucosidase activity enhancement in p.Asn370Ser cells ([2]; 100 nM): 1.7 fold | IC50 [1]: 5.1 ± 1.1 nM | In-vitro rh-GCase stabilization ΔTm [3]: 13.2 °C | ΔTm at 100 µM [3]: 14.2 °C

Cc1ccc(C(=O)NC[C@@H]2NC[C@@H](O)[C@H](O)[C@H]2CO)c([N+](=O)[O-])c1 [Compound 24]
IC50 [1]: 11 ± 0.7 nM

O=C(NCC1NCC(O)C(O)C1CO)c1ccc2ccccc2c1 (stereo not shown) [S1]
IC50 [1]: 3.7 ± 0.4 nM | fold greater inhibitory potency than IFG ([1]; rh-GCase IC50 compared with IFG): 50 fold

OC[C@H]1CNC[C@@H](O)[C@@H]1O [IFG, isofagomine]
β-glucosidase activity enhancement in p.Asn370Ser cells ([2]; 1000 nM): 1.7 fold | activity enhancement on co-administration with rh-GCase compared to rh-GCase alone [4]: 6 fold | ΔTm at 100 µM [3]: 9.6 °C | activity enhancement on co-administration with rh-GCase compared to rh-GCase alone [5]: 7 fold

COc1ccc(Br)cc1/C=C/C(=O)NC[C@@H]1NC[C@@H](O)[C@H](O)[C@H]1CO [Compound 25]
IC50 [1]: 26.4 ± 8 nM

COc1ccc(C(=O)NC[C@@H]2NC[C@@H](O)[C@H](O)[C@H]2CO)c(OC)c1 [Compound 26]
IC50 [1]: 200 ± 32 nM

Cc1ccc(C(=O)NC[C@H]2NC[C@@H](O)[C@H](O)[C@H]2CO)c([N+](=O)[O-])c1 [Compound 18]
IC50 [1]: 191 ± 43 nM

O=C(/C=C/c1cccc(Br)c1)NC[C@@H]1NC[C@@H](O)[C@H](O)[C@H]1CO [Compound 16]
β-glucosidase activity enhancement in p.Asn370Ser cells ([2]; 10 nM): 2.5 fold | β-glucosidase activity enhancement in p.Asn370Ser cells ([2]; 25 nM): up to 2.7 fold | influence on cellular α-glucosidase activity [6]: without impairing cellular α-glucosidase activity | activity enhancement on co-administration with rh-GCase compared to rh-GCase alone [4]: 9.1 fold | IC50 [1]: 4 ± 0.7 nM | In-vitro rh-GCase stabilization ΔTm [3]: 14.2 °C | ΔTm at 100 µM [3]: 13.2 °C | activity enhancement on co-administration with rh-GCase compared to rh-GCase alone [5]: 13 fold

COc1ccc(Br)cc1/C=C/C(=O)NC[C@H]1NC[C@@H](O)[C@H](O)[C@H]1CO [Compound 19]
IC50 [1]: 7.7 ± 1.5 nM

O=C(NC[C@H]1NC[C@@H](O)[C@H](O)[C@H]1CO)c1cccc2c1C(=O)c1ccccc1-2 [Compound 21]
IC50 [1]: 25.9 ± 11.1 nM

B1: rh-GCase: recombinant human GCase used for enzyme replacement therapy (protein, UniProt P04062 40-536, looked up)
Lysosomal acid …: T1 sequence (P04062 40-536)
Tm [7]: 49.1 ± 0.1 oC

B2: Mono-PEG5k (50 eq): rh-GCase modified by MeO-PEG-NHS (Mw 5000 Da), 50 eq of reagent (conjugate, UniProt P04062 40-536, looked up)
Lysosomal acid …: T1 sequence (P04062 40-536)
modifications: PEG 5 kDa, 50 eq
notes: rh-GCase modified by MeO-PEG-NHS (Mw 5000 Da), 50 eq of reagent
Tm [7]: 51.7 ± 0.3 oC

B3: Mono-PEG5k (100 eq): rh-GCase modified by MeO-PEG-NHS (Mw 5000 Da), 100 eq of reagent (conjugate, UniProt P04062 40-536, looked up)
Lysosomal acid …: T1 sequence (P04062 40-536)
modifications: PEG 5 kDa, 100 eq
notes: rh-GCase modified by MeO-PEG-NHS (Mw 5000 Da), 100 eq of reagent
Tm [7]: 50.3 ± 0.4 oC
